This passage reports viability results from paper PMC12040169 (PLOS Biology, 2025).

What is called viability is a read-out of living cells in per cent, often relative to untreated cells.

Molecules are shown by their SMILES.

A short description of this data set: in vitro. The settings on record: human, hela cells, % viability.
Consider `Cc1ccc2c(c1)cc(C(=O)N1CCC(C(=O)NCCc3ccc(Cl)cc3)C1)n2C` (stereo not drawn) [CBK285926], for which the viability at 28.5 h, 10 µM was determined as 103%.
With `CC(C)NC(=O)c1sc2ccccc2c1C1CCN(S(=O)(=O)c2ccccc2)C1` (stereo not drawn) [CBK285927], the viability at 28.5 h, 10 µM was 83.1%.
The figure for `Cc1cc(-c2cnc(N)nc2)cc(C2CCCN(C(=O)COc3c(C)cccc3C)C2)n1` (stereo not drawn) [CBK285933] is 103%.
For `Cc1cc(-c2cnc(N)nc2)cc(C2CCCN(S(=O)(=O)c3ccc(F)c(C)c3)C2)n1` (stereo not drawn) [CBK285934], the viability at 28.5 h, 10 µM was found to be 105%.
For `COc1ccc(-c2ccccc2NC(=O)C2CC(=O)N(Cc3cccc(F)c3)C2)cc1` (stereo not drawn) [CBK285937] the value was 89.3%; for `COc1ccc(CCC(=O)N2CCCC2c2cc(Nc3nccs3)cc(C)n2)cc1` (stereo not drawn) [CBK285939], 90%; for `O=C(CN1CCCC1c1ccc(Nc2ccc(F)cn2)cn1)Nc1ccc(F)cc1` (stereo not drawn) [CBK285941], 106%.
With `CC(Cc1ccc(N(C)C)cc1)NC(=O)C1CN(S(=O)(=O)c2ccc(F)cc2)C1` (stereo not drawn) [CBK285942], the viability at 28.5 h, 10 µM was found to be 114%.
Consider `Cn1c(-c2ccccc2)cnc1NC(=O)C1CN(S(=O)(=O)c2ccc(F)cc2)C1` [CBK285945], for which the viability at 28.5 h, 10 µM stood at 98.4%.
In the case of `O=C(CCn1c(=O)oc2ccccc21)Nc1ccc2c(c1)CN(Cc1ccccc1)C2` [CBK285946], the viability at 28.5 h, 10 µM turned out to be 120%.
As for `COc1cccc2[nH]c(C(=O)N3CCOC(c4cccc(-c5c(F)cccc5F)n4)C3)cc12` (stereo not drawn) [CBK285948], the viability at 28.5 h, 10 µM was 110%.
For `O=c1[nH]c(=O)c2cc(S(=O)(=O)N3CCc4[nH]c5ccccc5c4C3)ccc2[nH]1` [CBK285949] the value was 96.7%; for `Cc1cccc(CNC(=O)CC2CCN(Cc3cccc(C(F)(F)F)c3)CC2)n1` [CBK285950], 105%.
For `Cn1c(=O)oc2cc(NC(=O)CC3CCN(Cc4cccc(C(F)(F)F)c4)CC3)ccc21` [CBK285953] the value was 90%.
As to `O=C(CC1CCN(Cc2cccc(C(F)(F)F)c2)CC1)NCc1ccc2[nH]c(=O)[nH]c2c1` [CBK285954], the viability at 28.5 h, 10 µM worked out at 97.8%.
The figure for `CC(C)(CNC(=O)c1ccc(=O)n(CC(=O)Nc2ccc(F)cc2)c1)c1cccc(F)c1` [CBK285955] is 86.7%; for `CCOc1cc(F)ccc1NC(=O)CC1CCN(c2nc(C)cc(C)n2)CC1` [CBK285958] it is 103%.
For `Cn1cnc2ccc(NC(=O)CC3CCN(C(=O)CC4CCCCC4)CC3)cc21` [CBK285961] the value was 84.1%; for `O=C(CC1CCN(C(=O)CC2CCCCC2)CC1)NCc1ccccc1N1CCCC1` [CBK285962], 99.2%; for `Cn1c(-c2ccccc2)cnc1NC(=O)CC1CCN(C(=O)Cc2ccccc2)CC1` [CBK285966], 96.9%.
For `Cc1nc2ccc(NC(=O)CC3CCN(C(=O)CC4CCCCC4)CC3)cc2[nH]1` [CBK285967] the value was 94.6%; for `Cc1cccnc1Nc1ccc(C2CCCN(C(=O)Cc3c[nH]c4ccccc34)C2)nc1` (stereo not drawn) [CBK285968], 97.7%; for `Cc1cccnc1Nc1ccc(C2CCCN(C(=O)Cc3ccc4c(c3)CCCO4)C2)nc1` (stereo not drawn) [CBK285969], 89.8%.
On to `COc1ccc(OC(C)(C)C(=O)N2CCCC(c3ccc(Nc4ncccn4)cn3)C2)cc1` (stereo not drawn) [CBK285970], for which the viability at 28.5 h, 10 µM amounted to 83.9%.
For `Cc1csc(Nc2cccc(C3CCCN3C(=O)CCOc3ccccc3C)n2)n1` (stereo not drawn) [CBK285977] the value was 101%; for `Cc1cc(C)c2nc(NC(=O)c3ccc(=O)n(CC(=O)NC4CCCCC4)c3)sc2c1` [CBK285980], 107%; for `O=C(Cn1cc(C(=O)Nc2cc(F)ccc2N2CCCC2)ccc1=O)NC1CCCCC1` [CBK285981], 102%.
The figure for `O=C(Cn1cc(C(=O)NCC2(c3ccccc3Cl)CC2)ccc1=O)NC1CCCCC1` [CBK285985] is 92.7%; for `O=C(Cn1cc(C(=O)NC2(c3ccccc3)CCCC2)ccc1=O)NC1CCCCC1` [CBK285986] it is 82.6%; for `COc1c(C)cccc1C(=O)N1CCCC(c2ccc(Nc3nc(C)cc(C)n3)cn2)C1` (stereo not drawn) [CBK285989] it is 98.5%.
The figure for `O=C(CC1Oc2ccccc2NC1=O)Nc1ccc2c(c1)CN(Cc1ccccc1)C2` (stereo not drawn) [CBK285991] is 88%; for `COc1ccc(C(NC(=O)CC2CCN(c3nc(C)cc(C)n3)CC2)C2CC2)cc1` (stereo not drawn) [CBK285994] it is 93.4%; for `Cc1cc(C)nc(N2CCC(CC(=O)NCCOc3cccc(F)c3)CC2)n1` [CBK285996] it is 112%.
Turning to `COc1ccccc1-c1ccccc1CN(C)Cc1ccccc1N1CCOCC1` [CBK286000], the viability at 28.5 h, 10 µM stood at 88.7%.
Turning to `O=C(CC1CCN(C(=O)Cc2ccccc2)CC1)Nc1nc2c(s1)CCCCC2` [CBK286001], the viability at 28.5 h, 10 µM was determined as 90.3%.
The figure for `Cc1cc(CCCC(=O)N2CCCC(c3ccc(Nc4ncccn4)cn3)C2)ccc1F` (stereo not drawn) [CBK286003] is 78.6%; for `O=C(Nc1nc2c(s1)CCCCC2)C1CN(S(=O)(=O)c2ccc(F)cc2)C1` [CBK286005] it is 95%; for `O=C(Nc1ccc(F)cc1)c1ccc(=O)n(CC(=O)N2CCC3(CCCCC3)C2)c1` [CBK286006] it is 94.9%.
The figure for `Cc1cc(C)nc(Nc2ccc(C3CCCN(C(=O)C(C)(C)c4cccc(F)c4)C3)nc2)n1` (stereo not drawn) [CBK286007] is 85.2%; for `Cc1ccc(C2CCCN2C(=O)c2cccn(CC(=O)NC3CCCCC3)c2=O)cc1C` (stereo not drawn) [CBK286009] it is 92.2%.
The figure for `COc1cc(C)c(C)cc1S(=O)(=O)N1[C@@H](c2ccccc2F)C[C@@H]2NC(=O)CCC[C@H]21` [CBK286012] is 112%.
For the compound `CNC(=O)c1ccc(-c2ccc(CNC(=O)C(C)Oc3ccc(C)c(C)c3)cc2)nc1C` (stereo not drawn) [CBK286014], the viability at 28.5 h, 10 µM worked out at 104%.
As for `CNC(=O)c1ccc(-c2ccc(CNC(=O)CCc3cccc(Cl)c3)cc2)nc1C` [CBK286015], the viability at 28.5 h, 10 µM amounted to 86.9%.
For `Cc1nc(-c2ccc(CNC(=O)C(Cc3ccccc3)N3CCCC3)cc2)ccc1C(N)=O` (stereo not drawn) [CBK286017] the value was 92.6%.
`CC(C)(CNC(=O)c1ccc(=O)n(CC(=O)N2CCc3ccccc32)c1)c1ccccc1F` [CBK286020]: the viability at 28.5 h, 10 µM turned out to be 127%.
For `O=C(Cn1cc(C(=O)NC2(c3ccccc3)CCCC2)ccc1=O)NCc1ccc(F)cc1` [CBK286027] the value was 84.4%; for `COc1cccc(CC(=O)N2[C@H](Cc3ccccc3)C[C@@H]3NCCCCC[C@H]32)c1` [CBK286030], 105%; for `Cc1[nH]c2ccccc2c1C(=O)N1CCC(CC(=O)N2CCN(c3ccccc3)CC2)CC1` [CBK286033], 96.6%.
For `Cc1ccc2c(c1)cc(C(=O)N1CCOC(C(=O)N3CCc4ccccc4C3)C1)n2C` (stereo not drawn) [CBK286035] the value was 93.8%.
The figure for `Cc1cc(C(=O)N2CCCC(c3ccc(Cc4ccc(Cl)cc4)cn3)C2)nc(N(C)C)n1` (stereo not drawn) [CBK286036] is 116%; for `CC(=O)N1CCCC1C(=O)N1CC(C(=O)Nc2nc3c(C)cc(C)cc3s2)C1` (stereo not drawn) [CBK286039] it is 86%.
Consider `O=C(Cn1cc(C(=O)NCC2(c3ccccc3)CCCC2)ccc1=O)NC1CCCC1` [CBK286040], for which the viability at 28.5 h, 10 µM was found to be 104%.
As to `CC(C)c1ncc(CN2CCC(CC(=O)N3CCN(c4ccccc4)CC3)CC2)cn1` [CBK286048], the viability at 28.5 h, 10 µM stood at 101%.
The figure for `CC(C)c1ccc(C(C)NC(=O)Cn2cc(C(=O)Nc3ccc(F)cc3)ccc2=O)cc1` (stereo not drawn) [CBK286049] is 97.6%.
Consider `CC1CCc2nc(NC(=O)Cn3cc(C(=O)Nc4ccc(F)cc4)ccc3=O)sc2C1` (stereo not drawn) [CBK286053], for which the viability at 28.5 h, 10 µM was 100%.
The figure for `O=C(Cn1cccc(C(=O)NC2CCCCC2)c1=O)NCC1(c2ccccc2Cl)CC1` [CBK286054] is 94.6%; for `O=C(Cn1cccc(C(=O)Nc2ccc(F)cc2)c1=O)NC1(c2ccccc2)CCCC1` [CBK286057] it is 96.3%; for `O=C(Cn1cccc(C(=O)NC2CCCCC2)c1=O)NC1(c2ccccc2)CCCC1` [CBK286059] it is 85.1%.
The figure for `CC1CCc2nc(NC(=O)Cn3cccc(C(=O)NC4CCCCC4)c3=O)sc2C1` (stereo not drawn) [CBK286064] is 101%.
The figure for `CC(C)(CNC(=O)Cn1cccc(C(=O)Nc2ccc(F)cc2)c1=O)c1ccccc1F` [CBK286067] is 97.4%.
Regarding `CC(C)(CNC(=O)Cn1cccc(C(=O)NC2CCCCC2)c1=O)c1cccc(F)c1` [CBK286069], the viability at 28.5 h, 10 µM came out at 86.9%.
Take `O=C(NCC1(c2ccccc2Cl)CC1)c1ccc(=O)n(CC(=O)N2CCCCC2)c1` [CBK286077]: the viability at 28.5 h, 10 µM turned out to be 84.8%.
Consider `O=C(Cn1cc(C(=O)Nc2ccc(F)cc2)ccc1=O)Nc1nc2c(s1)CCCCC2` [CBK286080], for which the viability at 28.5 h, 10 µM was 99.3%.
The figure for `O=C(NCC1(c2ccccc2)CCCC1)c1ccc(=O)n(CC(=O)N2CCCCC2)c1` [CBK286082] is 93.5%; for `O=C(Nc1cc(F)ccc1N1CCCC1)c1ccc(=O)n(CC(=O)N2CCCCC2)c1` [CBK286083] it is 97.7%; for `CNC(=O)c1sc2ccccc2c1C1CN(Cc2cn(C)c3cc(OC)ccc23)CCO1` (stereo not drawn) [CBK286087] it is 91.9%.
For the compound `Cc1ccc(C2CCCN2C(=O)c2ccc(=O)n(CC(=O)Nc3ccc(F)cc3)c2)cc1C` (stereo not drawn) [CBK286088], the viability at 28.5 h, 10 µM is 107%.
The figure for `O=C(CN1CCC(c2cccc(Cc3cccc(F)c3)n2)CC1)Nc1nccs1` [CBK286090] is 91.8%; for `Cc1noc(C)c1CC(=O)N1[C@H]2CCCCCN(C)[C@@]2(C)C[C@H]1c1ccccc1` [CBK286094] it is 85.8%.
For `CC(C)c1ccc(C(C)NC(=O)Cn2cc(C(=O)NC3CCCCC3)ccc2=O)cc1` (stereo not drawn) [CBK286097] the value was 100%; for `CCCn1cnc2cc(NC(=O)Cn3cc(C(=O)NC4CCCCC4)ccc3=O)ccc21` [CBK286098], 96.6%; for `O=C(Cn1cc(C(=O)NC2CCCCC2)ccc1=O)NCC1(c2ccccc2Cl)CC1` [CBK286101], 86.4%.
